Tests used:
[1] = excess molar enthalpy (molar enthalpy of mixing); xn = mol fraction of the nth substance listed; conditions: 101 kPa, Liquid
[2] = xn = mol fraction of the nth substance listed; conditions: 101 kPa, Liquid; for speed of sound: Sing-around technique in a fixed-path interferometer

C=C1CCC2CC1C2(C)C (stereo not drawn) [β-pinene] + CCCC(C)O
Conditions | excess molar enthalpy [kcal/mol] | mass density [kg/m3] | speed of sound [m/s]
[1], 283.15 K, x1 = 0.049 | 0.0299 | – | –
[1], 283.15 K, x1 = 0.1 | 0.0631 | – | –
[1], 283.15 K, x1 = 0.193 | 0.117 | – | –
[1], 283.15 K, x1 = 0.294 | 0.163 | – | –
[1], 283.15 K, x1 = 0.395 | 0.194 | – | –
[1], 283.15 K, x1 = 0.495 | 0.21 | – | –
[1], 283.15 K, x1 = 0.591 | 0.21 | – | –
[1], 283.15 K, x1 = 0.695 | 0.194 | – | –
[1], 283.15 K, x1 = 0.794 | 0.168 | – | –
[1], 283.15 K, x1 = 0.9 | 0.123 | – | –
[1], 283.15 K, x1 = 0.942 | 0.092 | – | –
[1], 283.15 K, x1 = 0.971 | 0.066 | – | –
[1], 283.15 K, x1 = 0.985 | 0.0356 | – | –
[1], 298.15 K, x1 = 0.049 | 0.0382 | – | –
[1], 298.15 K, x1 = 0.1 | 0.0803 | – | –
[1], 298.15 K, x1 = 0.193 | 0.149 | – | –
[1], 298.15 K, x1 = 0.294 | 0.206 | – | –
[1], 298.15 K, x1 = 0.395 | 0.243 | – | –
[1], 298.15 K, x1 = 0.495 | 0.263 | – | –
[1], 298.15 K, x1 = 0.591 | 0.263 | – | –
[1], 298.15 K, x1 = 0.695 | 0.253 | – | –
[1], 298.15 K, x1 = 0.794 | 0.224 | – | –
[1], 298.15 K, x1 = 0.9 | 0.172 | – | –
[1], 298.15 K, x1 = 0.942 | 0.124 | – | –
[1], 298.15 K, x1 = 0.971 | 0.0875 | – | –
[1], 298.15 K, x1 = 0.985 | 0.0452 | – | –
[1], 313.15 K, x1 = 0.049 | 0.05 | – | –
[1], 313.15 K, x1 = 0.1 | 0.0987 | – | –
[1], 313.15 K, x1 = 0.193 | 0.179 | – | –
[1], 313.15 K, x1 = 0.294 | 0.245 | – | –
[1], 313.15 K, x1 = 0.395 | 0.289 | – | –
[1], 313.15 K, x1 = 0.495 | 0.315 | – | –
[1], 313.15 K, x1 = 0.591 | 0.321 | – | –
[1], 313.15 K, x1 = 0.695 | 0.313 | – | –
[1], 313.15 K, x1 = 0.794 | 0.286 | – | –
[1], 313.15 K, x1 = 0.9 | 0.21 | – | –
[1], 313.15 K, x1 = 0.942 | 0.153 | – | –
[1], 313.15 K, x1 = 0.971 | 0.0968 | – | –
[1], 313.15 K, x1 = 0.985 | 0.0442 | – | –
[2], 283.15 K, x1 = 0.104 | – | 824.99 | 1291.4
[2], 283.15 K, x1 = 0.2047 | – | 832.2 | 1295.3
[2], 283.15 K, x1 = 0.3071 | – | 839.03 | 1299.3
[2], 283.15 K, x1 = 0.3997 | – | 844.95 | 1303.5
[2], 283.15 K, x1 = 0.4964 | – | 850.86 | 1308.8
[2], 283.15 K, x1 = 0.6058 | – | 857.28 | 1316.2
[2], 283.15 K, x1 = 0.6929 | – | 862.26 | 1323.1
[2], 283.15 K, x1 = 0.8016 | – | 868.23 | 1332.7
[2], 283.15 K, x1 = 0.904 | – | 873.67 | 1342.4
[2], 283.15 K, x1 = 0.9454 | – | 875.83 | 1346.8
[2], 298.15 K, x1 = 0.1056 | – | 812.89 | 1235
[2], 298.15 K, x1 = 0.2051 | – | 819.88 | 1238.6
[2], 298.15 K, x1 = 0.3052 | – | 826.49 | 1241.5
[2], 298.15 K, x1 = 0.4038 | – | 832.72 | 1245.8
[2], 298.15 K, x1 = 0.5068 | – | 838.99 | 1251.5
[2], 298.15 K, x1 = 0.601 | – | 844.56 | 1257.8
[2], 298.15 K, x1 = 0.695 | – | 849.94 | 1265
[2], 298.15 K, x1 = 0.8014 | – | 855.84 | 1273.7
[2], 298.15 K, x1 = 0.9001 | – | 861.15 | 1282.7
[2], 298.15 K, x1 = 0.9499 | – | 863.9 | 1288.2
[2], 313.15 K, x1 = 0.1069 | – | 800.02 | 1170.1
[2], 313.15 K, x1 = 0.1981 | – | 806.39 | 1173.2
[2], 313.15 K, x1 = 0.3039 | – | 813.43 | 1177.7
[2], 313.15 K, x1 = 0.4034 | – | 819.78 | 1182.2
[2], 313.15 K, x1 = 0.5067 | – | 826.14 | 1188.2
[2], 313.15 K, x1 = 0.6023 | – | 831.84 | 1195.1
[2], 313.15 K, x1 = 0.7005 | – | 837.55 | 1203.4
[2], 313.15 K, x1 = 0.7975 | – | 843.07 | 1212.8
[2], 313.15 K, x1 = 0.8956 | – | – | 1223.2
[2], 313.15 K, x1 = 0.8957 | – | 848.53 | –
[2], 313.15 K, x1 = 0.9497 | – | 851.6 | 1229.6

Reference: the NIST ThermoML archive (doi:10.1021/je060210c)
